In PMC9305425 (Chemmedchem, 2022):
Values joined by “and” are separate entries in the source; they are usually repeats but may differ in a detail not shown here. Equal entries are not always repeated. Where two headings read alike, the source gives them in different places.

Columns and labels:
[1] = biological target: T1, oxidized VcDsbA (Vibrio cholerae serotype O1, UniProt P32557); assay: biochemical; format: binding; conditions: for Kd: 1H-15N HSQC titration, one-site binding model, 100 μM 15N-labeled oxidized VcDsbA, 298 K, read-out: equilibrium dissociation constant (KD); for extent of chemical shift perturbations (CSP) in 1H-15N HSQC of VcDsbA: single-point addition of compound (1 mM) to VcDsbA (100 μM), compared with other hits / analogues
T1 construct: made in house; host or cells: E. coli BL21(DE3)
T1 sequence (P32557 20-200): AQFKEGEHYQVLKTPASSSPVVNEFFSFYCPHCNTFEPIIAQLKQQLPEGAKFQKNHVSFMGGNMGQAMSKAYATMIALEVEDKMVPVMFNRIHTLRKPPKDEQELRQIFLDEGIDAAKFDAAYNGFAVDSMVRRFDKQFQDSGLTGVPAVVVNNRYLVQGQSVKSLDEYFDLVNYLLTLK

[2] = biological target: VcDsbA; conditions: cited from earlier work
[3] = biological target: EcDsbA; conditions: cited from earlier work
[4] = biological target: T2, oxidized EcDsbA (Escherichia coli, UniProt P0AEG4); assay: biochemical; format: binding; parameters: made in house; host or cells: E. coli BL21(DE3)
T2 sequence (P0AEG4 20-208): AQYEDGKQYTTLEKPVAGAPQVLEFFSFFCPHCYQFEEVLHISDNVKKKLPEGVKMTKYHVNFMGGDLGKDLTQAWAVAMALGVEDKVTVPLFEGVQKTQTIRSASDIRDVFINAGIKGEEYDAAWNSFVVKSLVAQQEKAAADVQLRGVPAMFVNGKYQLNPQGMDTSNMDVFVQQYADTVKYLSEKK

[5] = tested on: VcDsbA; conditions: cited from earlier work; remark: listed apart in the source
[6] = biological target: T2, oxidized EcDsbA; assay: biochemical
Experimental: ITC was performed using a MicroCal iTC200 instrument (GE Healthcare). […] Titrations were conducted at 25 °C using 15 consecutive injections of 2.5 μL with 180 s intervals and a stirring speed of 700 rpm. […] Every interaction was tested in triplicate and the values given represent mean and standard error of mean (SEM) from these triplicate analyses.
Isothermal Titration Calorimetry (ITC).
EcDsbA (A)/VcDsbA (B). Each experiment was conducted in triplicate; a single replicate
representative of the acquired ITC data is shown.
(1 picture or pasted object on this page, not shown here)

[7] = 2D [1H,1H]-NOESY; for solubility / aggregation in aqueous buffer: 298 K
Experimental: Solubility test of benzimidazole 2 in aqueous buffer. 2D [1H,1H]-NOESY of
benzimidazole 2 at 4 mM in D2O NMR buffer (50 mM NaPi, 25 mM NaCl, pH 6.5; 2% D6-

[8] = biological target: T3, unlabelled oxidized VcDsbA (Vibrio cholerae serotype O1, UniProt P32557); assay: Ligand-detected 1D 19F NMR affinity estimation; format: binding; conditions: change in 19F chemical shift at two protein:ligand ratios, VcDsbA 10 μM
T3 construct: made in house; host or cells: E. coli BL21(DE3)
T3 sequence (P32557 20-200): as the sequence (P32557 20-200) above
Text: Residues with a CSP >0.05 ppm at the highest ligand concentration tested were mapped onto the VcDsbA structure (Figure 2C, D). The residues showing the largest CSP were localized within the hydrophobic groove, adjacent to the active site (Figure 2D). […] The K D for the VcDsbA‐benzimidazole 2 interaction was also estimated using ligand‐detected 1D ^19F‐NMR (Figure 2F). The ^19F chemical shift of the CF3 group in benzimidazole 2 has a chemical shift of −60.38 ppm in the absence of protein and was perturbed upon in a concentration‐dependent fashion upon addition of VcDsbA. The change in the chemical shift of the ^19F signal at two different protein : ligand ratios was used to estimate the K D of the interaction.[20]
Affinity estimation from ligand‐detected ^19F NMR. The change in the resonance frequency of the single ^19F signal in the 1D ^19F NMR spectrum of benzimidazole 2 was used to estimate the binding affinity using equation 2.[43] (2) KD=γL1-L2/1-γ
where γ is described as ΔδF1/ΔδF2 and ΔδF1 and ΔδF2 denote the changes in chemical shift of the fluorine signal of benzimidazole 2 in the absence of VcDsbA and in presence of VcDsbA (10.0 μM) at ligand concentrations of [L]1 and [L]2, respectively.

SMILES	Kd [1]	extent of chemical shift perturbations (CSP) in 1H-15N HSQC of VcDsbA [1]	Kd [2]	Kd [3]	effect on the oxidation state of DsbA [4]	Kd ([4]; KD)	VcDsbA substrate oxidation in vivo [5]	redox state of VcDsbA [5]	N (stoichiometry) [6]	ΔH [6]	ΔS [6]	Kd ([6]; KD)	Kd ([6]; association constant K)	solubility / aggregation in aqueous buffer ([7]; [TC]set = 4 mM in D2O NMR buffer)	Kd [8]	Kd [4]	selectivity for VcDsbA over EcDsbA ([1]; ratio of HSQC-derived KD values, VcDsbA over EcDsbA)	solubility / aggregation in aqueous buffer ([7]; 4 mM in D2O NMR buffer (50 mM NaPi, 25 mM NaCl, pH 6.5; 2% D6-DMSO; 98% D2O))	solubility / aggregation in aqueous NMR buffer ([7]; mixing time 800 ms, concentration of 2.5 mM)
OCCCc1nc2ccc(C(F)(F)F)cc2[nH]1 [benzimidazole 1]	610 ± 150 µM	largest chemical shift perturbations																	
C[C@H](CCC(=O)NCCS(=O)(=O)O)[C@H]1CC[C@H]2[C@@H]3[C@H](O)C[C@@H]4C[C@H](O)CC[C@]4(C)[C@H]3C[C@H](O)[C@]12C [TC, sodium taurocholate]			40 ± 2.5 µM	146 ± 7 µM	no effect on the oxidation state	224 µM and ~224 µM	inhibit VcDsbA substrate oxidation in vivo	able to affect the redox state of VcDsbA	1	-6.551 ± 0.273 kcal/mol	-6.11 cal/mol/deg	428 ± 44 µM	340 µM	no aggregation					
OCCCc1nc2c(Cl)cc(C(F)(F)F)cc2[nH]1 [benzimidazole 2]	446 ± 10 µM	largest CSP													480 µM	> 3500 µM	~8 fold	no aggregation	soluble and free from aggregation
